# From patent publication US20160280651A1, “COMPOUNDS THAT INDUCE ABA RESPONSES” (THE REGENTS OF THE UNIVERSITY OF CALIFORNIA, priority 2013, published 2016)
# System: Arabidopsis seeds
# Assay: Arabidopsis germination inhibition analysis, Example 12
# Type: in vivo
# Conditions: 0.2 uM; assessed after 3 days, dark
# Protocol: To analyse the effect of compounds on inhibition of germination, Arabidopsis seeds after-ripened for about 4 weeks were surface-sterilized with a solution containing 5% NaClO and 0.05% Tween-20 for 10 minutes, and rinsed with water four times. Sterilized seeds were suspended with 0.1% agar and sowed on 0.8% solidified agar medium containing ½ Murashige and Skoog (MS) salts (Sigma-Aldrich) in the presence of the relevant treatment, stored at 4° C. for 4 days, and then transferred to 22° C. under the dark conditions. Germination was assessed after 3 days.
row,SMILES,Percentage germination of Arabidopsis seeds [%]
1,C=CCN1C(=O)CCc2cc(NS(=O)(=O)Cc3ccc(OC(F)(F)F)cc3)cc(C)c21,100
2,C#CCN1C(=O)CCc2cc(NS(=O)(=O)Cc3ccc(OC(F)(F)F)cc3)cc(C)c21,100
3,C=CCN1C(=O)CCc2cc(NS(=O)(=O)Cc3ccc(Br)cc3)cc(C)c21,100
4,C=CCN1C(=O)CCc2cc(NS(=O)(=O)Cc3ccc(C)cc3)cc(C)c21,100
5,C=CCN1C(=O)CCc2cc(NS(=O)(=O)Cc3ccc(Cl)cc3)cc(C)c21,100
6,C#CCN1C(=O)CCc2cc(NS(=O)(=O)Cc3ccc(Br)cc3)cc(C)c21,100
7,C#CCN1C(=O)CCc2cc(NS(=O)(=O)Cc3ccc(C)cc3)cc(C)c21,100
8,C=CCN1C(=O)C(C)Cc2cc(NS(=O)(=O)Cc3ccc(OC(F)(F)F)cc3)ccc21 (stereo not shown),100
9,C=CCN1C(=O)C(C)Cc2cc(NS(=O)(=O)Cc3ccc(C)cc3)ccc21 (stereo not shown),99
10,CCCN1C(=O)CCc2cc(NS(=O)(=O)Cc3ccc(C)cc3)ccc21 [drawing 36],100

# Same assay, conditions: 1 uM; assessed after 3 days, dark
row,SMILES,Percentage germination of Arabidopsis seeds [%]
1,C=CCN1C(=O)CCc2cc(NS(=O)(=O)Cc3ccc(OC(F)(F)F)cc3)cc(C)c21,100
2,C#CCN1C(=O)CCc2cc(NS(=O)(=O)Cc3ccc(OC(F)(F)F)cc3)cc(C)c21,100
3,C=CCN1C(=O)CCc2cc(NS(=O)(=O)Cc3ccc(Br)cc3)cc(C)c21,100
4,C=CCN1C(=O)CCc2cc(NS(=O)(=O)Cc3ccc(C)cc3)cc(C)c21,100
5,C=CCN1C(=O)CCc2cc(NS(=O)(=O)Cc3ccc(Cl)cc3)cc(C)c21,100
6,C#CCN1C(=O)CCc2cc(NS(=O)(=O)Cc3ccc(Br)cc3)cc(C)c21,100
7,C#CCN1C(=O)CCc2cc(NS(=O)(=O)Cc3ccc(C)cc3)cc(C)c21,100
8,C=CCN1C(=O)C(C)Cc2cc(NS(=O)(=O)Cc3ccc(OC(F)(F)F)cc3)ccc21 (stereo not shown),100
9,C=CCN1C(=O)C(C)Cc2cc(NS(=O)(=O)Cc3ccc(C)cc3)ccc21 (stereo not shown),100
10,CCCN1C(=O)CCc2cc(NS(=O)(=O)Cc3ccc(C)cc3)ccc21 [drawing 36],46

# Same assay, conditions: 5 uM; assessed after 3 days, dark
row,SMILES,Percentage germination of Arabidopsis seeds [%]
1,C=CCN1C(=O)CCc2cc(NS(=O)(=O)Cc3ccc(OC(F)(F)F)cc3)cc(C)c21,30
2,C#CCN1C(=O)CCc2cc(NS(=O)(=O)Cc3ccc(OC(F)(F)F)cc3)cc(C)c21,68
3,C=CCN1C(=O)CCc2cc(NS(=O)(=O)Cc3ccc(Br)cc3)cc(C)c21,96
4,C=CCN1C(=O)CCc2cc(NS(=O)(=O)Cc3ccc(C)cc3)cc(C)c21,100
5,C=CCN1C(=O)CCc2cc(NS(=O)(=O)Cc3ccc(Cl)cc3)cc(C)c21,100
6,C#CCN1C(=O)CCc2cc(NS(=O)(=O)Cc3ccc(Br)cc3)cc(C)c21,100
7,C#CCN1C(=O)CCc2cc(NS(=O)(=O)Cc3ccc(C)cc3)cc(C)c21,100
8,C=CCN1C(=O)C(C)Cc2cc(NS(=O)(=O)Cc3ccc(OC(F)(F)F)cc3)ccc21 (stereo not shown),100
9,C=CCN1C(=O)C(C)Cc2cc(NS(=O)(=O)Cc3ccc(C)cc3)ccc21 (stereo not shown),100
10,CCCN1C(=O)CCc2cc(NS(=O)(=O)Cc3ccc(C)cc3)ccc21 [drawing 36],0

# Same assay, conditions: 25 uM; assessed after 3 days, dark
row,SMILES,Percentage germination of Arabidopsis seeds [%]
1,C=CCN1C(=O)CCc2cc(NS(=O)(=O)Cc3ccc(OC(F)(F)F)cc3)cc(C)c21,0
2,C#CCN1C(=O)CCc2cc(NS(=O)(=O)Cc3ccc(OC(F)(F)F)cc3)cc(C)c21,0
3,C=CCN1C(=O)CCc2cc(NS(=O)(=O)Cc3ccc(Br)cc3)cc(C)c21,0
4,C=CCN1C(=O)CCc2cc(NS(=O)(=O)Cc3ccc(C)cc3)cc(C)c21,0
5,C=CCN1C(=O)CCc2cc(NS(=O)(=O)Cc3ccc(Cl)cc3)cc(C)c21,0
6,C#CCN1C(=O)CCc2cc(NS(=O)(=O)Cc3ccc(Br)cc3)cc(C)c21,0
7,C#CCN1C(=O)CCc2cc(NS(=O)(=O)Cc3ccc(C)cc3)cc(C)c21,0
8,C=CCN1C(=O)C(C)Cc2cc(NS(=O)(=O)Cc3ccc(OC(F)(F)F)cc3)ccc21 (stereo not shown),14
9,C=CCN1C(=O)C(C)Cc2cc(NS(=O)(=O)Cc3ccc(C)cc3)ccc21 (stereo not shown),71
10,CCCN1C(=O)CCc2cc(NS(=O)(=O)Cc3ccc(C)cc3)ccc21 [drawing 36],0

# System: ABA-responsive genes
# Assay: Quantitative RT-PCR of ABA-responsive genes in Arabidopsis
# Type: in vivo
# Conditions: Col and Ler ecotypes and pyr1, pyl1, pyl2, pyl3, pyl4 single mutants
# Protocol: FIG. 9A-FIG. 9D. LC66C6 induces numerous ABA-responsive genes. […] Ten-day old seedlings were treated with carrier solvent (DMSO) or either 25 μM ABA, pyrabactin or LC66C6 for 8 hours. Total RNA was then prepared labeled and hybridized to ATH1 microarrays. Data plotted are log 2 transformed average expression values for ˜13K probes that were detectable across all experiments. Data shown are averages determined from triplicate biological replicates. (C) and (D) show the expression of a reporter gene in different plant tissues after treatment with vehicle (DMSO), pyrabactin, LC66C6, or (+)-ABA.
# FIG. 10. ABA-responsive gene expression in PYR/PYL single mutants. The response of the ABA-responsive MAPKKK18, RD29A, and RD29B mRNAs to LC66C6, ABA and pyrabactin were characterized in the Col and Ler ecotypes and the pyr1, pyl1, ply2, pyl3 and pyl4 single mutant genotypes.
# FIG. 11. LC66C6 induces ABA-responsive gene expression in wild-type plants, abi1-1 and PYR/PYL quadruple mutants.
# Total RNA was isolated using Plant RNA purification reagent (Invitrogen, USA) according to the manufacturer's instructions. cDNA was synthesized from 1 μg of total RNA using the QantiTec reverse transcription kit (Qiagen, USA). Real-time PCR using Maxima® SYBR Green/Fluorescein qPCR Master Mix (Fermentas) was performed with the iQ5 real-time PCR detection system (Bio-Rad, Hercules, Calif.). The relative amounts of target mRNAs were determined using the relative standard curve method and were normalized by relative amount of internal control mRNA. Biological triplicate experiments were performed.
row,SMILES,"Induction of MAPKKK18, RD29A and RD29B mRNAs"
1,"CC1=CC(=O)CC(C)(C)C1(O)/C=C/C(C)=C\C(=O)O (single isomer, unassigned; (+)) [(+)-ABA, Abscisic acid, reference compound]",induced

# Same assay, conditions: Col wild-type plants
row,SMILES,"Expression of ABF3, GBF3, NCED3 and RD29A"
1,"CC1=CC(=O)CC(C)(C)C1(O)/C=C/C(C)=C\C(=O)O (single isomer, unassigned; (+)) [(+)-ABA, Abscisic acid, reference compound]","induced expression of ABF3, GBF3, NCED3, and RD29A in a dose dependent manner"

# System: HAB1 with PYR/PYL receptors
# Assay: Receptor-mediated PP2C inhibition assay with HAB1, Example 1
# Type: biochemical, Arabidopsis
# Conditions: 10 μM; in the presence of all ABA receptors tested
# Protocol: (§1) FIG. 2A-FIG. 2C. Novel ABA agonists inhibit PPC2 activity through multiple PYR/PYL. (A) Chemical structure of naturally occurring (+)-ABA and selected ABA agonists. (B) and (C) HAB1, ABU, and ABI2 PP2C enzyme activity based ABA-agonist assays for various receptors in the presence or absence of 10 μM each test chemical.
# FIG. 3A-FIG. 3B. (A) Receptor-mediated dose-dependent inhibition of PP2C enzyme activity by ABA agonists and analogs. (B) Observed compound IC50 values in enzymatic HAB1 PP2C-based ABA-agonist assays.
# FIG. 4A-FIG. 4B. Quinabactin activates multiple ABA receptors. (A) Chemical structures of ABA, pyrabactin and quinabactin. (B) Chemical-dependent inhibition of HAB1 by ABA receptors. IC50 values (nM) were determined as described in the methods using 50 nM HAB1, 50 nM and multiple concentrations of compounds; full dose response curves are provided as in FIG. 3. (nd) correspond to receptors that were not produced as active proteins. The phylogenetic tree is a Neighbor-Joining tree made using the JTT distance matrix in MEGA5 (Tamura K, et al. (2011) MEGA5: Molecular Evolutionary Genetics Analysis Using Maximum Likelihood, Evolutionary Distance, and Maximum Parsimony Methods. Molecular Biology and Evolution 28(10):2731-2739).
# HAB1 and PYL proteins were expressed and purified as described previously (Park S Y, et al. (2009) Abscisic Acid Inhibits Type 2C Protein Phosphatases via the PYR/PYL Family of START Proteins. Science 324(5930):1068-1071), with minor modifications. To obtain GST-HAB1, -ABI1 and -ABI2 fusion proteins, the HAB1 cDNA was cloned into pGex-2T whereas ABI1 and ABI2 cDNAs were cloned into the vector pGex-4T-1. Expression was conducted in BL21[DE3]pLysS host cells. Transformed cells were pre-cultured overnight, transferred to LB medium and cultured at 30° C. to culture A600 of ˜0.5. The culture was then cooled on ice and MnCl2 added to 4 mM and IPTG added to 0.3 mM. After 16 hours incubation at 15° C., cells were harvested and recombinant proteins were purified on glutathione agarose as described previously (Park S Y, et al. (2009). To obtain 6×His-PYL receptor fusion proteins, receptor cDNAs for all 13 ABA receptors were cloned into the vector pET28 and expressed and purified as described previously (Mosquna A, et al. (2011) Potent and selective activation of abscisic acid receptors in vivo by mutational stabilization of their agonist-bound conformation. PNAS 108(51):20838-20843); this yielded soluble and functional protein (assessed using receptor-mediated PP2C inhibition assays) for all receptors except PYL7, PYL11 and PYL12. These three receptors were therefore alternatively expressed as maltose binding (MBP) fusion proteins using the vector pMAL-c; expression of these constructs was carried out in BL21 [DE3]pLysS host strain with the same induction conditions used for GST-HAB1. Recombinant MBP-PYL fusion proteins were purified from sonicated and cleared lysate using amylose resin (New England Biolab, Inc.) using the manufacturers purification instructions. This effort yielded an active MBP-PYL11 fusion protein, but failed for PYL7 and PYL12.
# PP2C activity assays using recombinant receptors and PP2Cs were carried out as follows: Purified proteins were pre-incubated in 80 μl assay buffer containing 10 mM MnCl2, 3 μg bovine serum albumin and 0.1% 2-mercaptoethanol with ABA or ABA agonist for 30 minutes at 22° C. Reactions were started by adding 20 μL of a reaction solution containing 156 mM Tris-OAc, pH 7.9, 330 mM KOAc and 5 mM 4-methylumbelliferyl phosphate after which fluorescence measurements were immediately collected using an excitation filter 355 nm and an emission filter 460 nm on a Wallac plate reader. Reactions contained 50 nM PP2C and 100 nM PYR/PYL proteins, respectively.
row,SMILES,Inhibition of PP2C enzyme activity of HAB1 [%]
1,"CC1=CC(=O)CC(C)(C)C1(O)/C=C/C(C)=C\C(=O)O (single isomer, unassigned; (+)) [(+)-ABA, Abscisic acid, reference compound]",> 90

# System: ABI2 with PYR/PYL receptors
# Assay: Receptor-mediated PP2C inhibition assay with ABI2, Example 1
# Type: biochemical, Arabidopsis
# Conditions: 10 μM; in the presence of all ABA receptors tested
# Protocol: as §1
# (§2) HAB1 and PYL proteins were expressed and purified as described previously (Park S Y, et al. (2009) Abscisic Acid Inhibits Type 2C Protein Phosphatases via the PYR/PYL Family of START Proteins. Science 324(5930):1068-1071), with minor modifications. To obtain GST-HAB1, -ABI1 and -ABI2 fusion proteins, the HAB1 cDNA was cloned into pGex-2T whereas ABI1 and ABI2 cDNAs were cloned into the vector pGex-4T-1. […] After 16 hours incubation at 15° C., cells were harvested and recombinant proteins were purified on glutathione agarose as described previously (Park S Y, et al. (2009). To obtain 6×His-PYL receptor fusion proteins, receptor cDNAs for all 13 ABA receptors were cloned into the vector pET28 and expressed and purified as described previously (Mosquna A, et al. (2011) Potent and selective activation of abscisic acid receptors in vivo by mutational stabilization of their agonist-bound conformation. PNAS 108(51):20838-20843); this yielded soluble and functional protein (assessed using receptor-mediated PP2C inhibition assays) for all receptors except PYL7, PYL11 and PYL12. […]
row,SMILES,Inhibition of PP2C enzyme activity of ABI2 [%]
1,"CC1=CC(=O)CC(C)(C)C1(O)/C=C/C(C)=C\C(=O)O (single isomer, unassigned; (+)) [(+)-ABA, Abscisic acid, reference compound]",> 90

# System: Chlamydomonas
# Assay: Colony growth of Chlamydomonas with and without salinity and osmotic stress
# Type: in vivo
# Conditions: not given
# Protocol: FIG. 17A-FIG. 17D. The effect of ABA and its agonists in Physcomitrella patens and Chlamydomonas. Protonemal growth images (A) and quantitative analysis (B) of the effects of ABA and agonists on Phsycomitrella patens. Protonema were grown on 200 μM of specific test chemical for 10 days. […] Pyrabactin bleached protonema. (C) The expression of ABA-responsive genes of Physcomitrella patens. Protonema were treated with 200 μM chemical solutions for 3 h. (D) Colony growth of Chlamydomonas on the chemical with salinity stress and osmotic stress. There was no effect of ABA and LC66C6 on the Chlamydomonas growth with and without stresses.
row,SMILES,Growth of Chlamydomonas
1,"CC1=CC(=O)CC(C)(C)C1(O)/C=C/C(C)=C\C(=O)O (single isomer, unassigned; (+)) [(+)-ABA, Abscisic acid, reference compound]",no effect

# System: ABI1 with PYR/PYL receptors
# Assay: Receptor-mediated PP2C inhibition assay with ABI1, Example 1
# Type: biochemical, Arabidopsis
# Conditions: 10 μM; in the presence of all ABA receptors tested
# Protocol: as §1, §2
row,SMILES,Inhibition of PP2C enzyme activity of ABI1 [%]
1,"CC1=CC(=O)CC(C)(C)C1(O)/C=C/C(C)=C\C(=O)O (single isomer, unassigned; (+)) [(+)-ABA, Abscisic acid, reference compound]",> 90
